Assay results: the supplement of paper PMC8149375

Tests used:
Settings in all cases: treatment: drug alone; 5 days
[1] = test system: 786-O; assay: minimum viability across doses, drug alone, relative to DMSO (fraction); higher = less growth inhibition
Protocol: (§1)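 Primary HTS: 8 RCC cell lines treated with 8 doses (up to 10 uM) of each library drug alone for 5 days; viability read by CellTiter-Glo and normalised to DMSO. GI50 was fitted with XLfit (4-parameter), AUC is the area under the dose-response curve, and minimum viability is the lowest fraction of DMSO viability across doses.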

[2] = test system: ACHN; assay: as above
Protocol: as §1

[3] = test system: UO-31; assay: as above
Protocol: as §1

[4] = test system: SN12C; assay: as above
Protocol: as §1

[5] = test system: CAKI-1; assay: as above
Protocol: as §1

[6] = test system: A498; assay: as above
Protocol: as §1

[7] = test system: 769-P; assay: as above
Protocol: as §1

[8] = test system: TK-10; assay: as above
Protocol: as §1

[9] = test system: 786-O; assay: AUC of dose-response viability curve, drug alone (arbitrary (AUC of normalised viability)); higher = less growth inhibition
Protocol: as §1

[10] = test system: ACHN; assay: as above
Protocol: as §1

[11] = test system: UO-31; assay: as above
Protocol: as §1

[12] = test system: SN12C; assay: as above
Protocol: as §1

[13] = test system: CAKI-1; assay: as above
Protocol: as §1

[14] = test system: A498; assay: as above
Protocol: as §1

[15] = test system: 769-P; assay: as above
Protocol: as §1

[16] = test system: TK-10; assay: as above
Protocol: as §1

[17] = test system: 786-O; assay: GI50, drug alone; higher = less potent
Protocol: as §1

[18] = test system: ACHN; assay: GI50, drug alone; higher = less potent
Protocol: as §1

[19] = test system: UO-31; assay: GI50, drug alone; higher = less potent
Protocol: as §1

[20] = test system: SN12C; assay: GI50, drug alone; higher = less potent
Protocol: as §1

[21] = test system: CAKI-1; assay: GI50, drug alone; higher = less potent
Protocol: as §1

[22] = test system: A498; assay: GI50, drug alone; higher = less potent
Protocol: as §1

[23] = test system: 769-P; assay: GI50, drug alone; higher = less potent
Protocol: as §1

[24] = test system: TK-10; assay: GI50, drug alone; higher = less potent
Protocol: as §1

Row | Structure (SMILES) | minimum viability across doses [1] | minimum viability across doses [2] | minimum viability across doses [3] | minimum viability across doses [4] | minimum viability across doses [5] | minimum viability across doses [6] | minimum viability across doses [7] | minimum viability across doses [8] | AUC of dose-response viability curve [9] | AUC of dose-response viability curve [10] | AUC of dose-response viability curve [11] | AUC of dose-response viability curve [12] | AUC of dose-response viability curve [13] | AUC of dose-response viability curve [14] | AUC of dose-response viability curve [15] | AUC of dose-response viability curve [16] | GI50, drug alone [17] | GI50, drug alone [18] | GI50, drug alone [19] | GI50, drug alone [20] | GI50, drug alone [21] | GI50, drug alone [22] | GI50, drug alone [23] | GI50, drug alone [24]
1 | Cc1ccc(NC(=O)c2ccc(CN3CCN(C)CC3)cc2)cc1Nc1nccc(-c2cccnc2)n1 [Imatinib (Gleevec)] | 0.514 | 0.802 | 1.03 | 0.77 | 0.891 | 0.919 | 0.858 | 0.829 | 2.36 | 3.41 | 4.67 | 3.06 | 3.35 | 3.83 | 3.23 | 3.07 | > 10000 nM | > 10000 nM | > 10000 nM | > 10000 nM | > 10000 nM | > 10000 nM | > 10000 nM | > 10000 nM
2 | CC1(C)CCC(c2ccc(Cl)cc2)=C(CN2CCN(c3ccc(C(=O)NS(=O)(=O)c4ccc(N[C@H](CCN5CCOCC5)CSc5ccccc5)c(S(=O)(=O)C(F)(F)F)c4)cc3)CC2)C1 [ABT-263 (Navitoclax)] | 0.00566 | 0.0597 | 0.00527 | 0.524 | 0.603 | 0.622 | 0.0787 | 0.163 | 1.72 | 2.51 | 2.31 | 3.21 | 3.41 | 3 | 3.02 | 2.39 | 181 nM | 2280 nM | 784 nM | > 10000 nM | > 10000 nM | > 10000 nM | 3170 nM | 1070 nM
3 | Nc1ncnc2c1c(-c1cnc3[nH]ccc3c1)nn2C1CCCC1 [PP-121] | 0.00427 | 0.0162 | 0.0162 | 0.0559 | 0.00982 | 0.0928 | 0.0337 | 0.0113 | 2.13 | 2.23 | 3.41 | 2.54 | 2.37 | 3.11 | 2.53 | 2.1 | 429 nM | 455 nM | 1530 nM | 1040 nM | 583 nM | 2730 nM | 1350 nM | 415 nM
4 | CCN1CCN(c2ccc(Nc3cc(N(C)C(=O)Nc4c(Cl)c(OC)cc(OC)c4Cl)ncn3)cc2)CC1 [BGJ398 (NVP-BGJ398)] | 0.218 | 0.111 | 0.401 | 0.385 | 0.133 | 0.92 | 0.631 | 0.327 | 2.7 | 2.28 | 2.98 | 2.91 | 2.1 | 3.84 | 3.22 | 2.68 | 2250 nM | 747 nM | 7580 nM | 6980 nM | 519 nM | > 10000 nM | > 10000 nM | 3230 nM
5 | CN(C)Cc1cccc(N/C(=C2\C(=O)Nc3cc(C(=O)N(C)C)ccc32)c2ccccc2)c1 | 0.524 | 0.127 | 0.605 | 0.382 | 0.12 | 1.14 | 0.867 | 0.481 | 2.81 | 2.8 | 4.64 | 3.05 | 3.08 | 4.62 | 3.43 | 2.94 | > 10000 nM | 2670 nM | 9910 nM | 8690 nM | 4000 nM | > 10000 nM | > 10000 nM | 9600 nM
6 | CCOc1cc2ncc(C#N)c(Nc3ccc(F)c(Cl)c3)c2cc1NC(=O)/C=C/CN(C)C [Pelitinib (EKB-569)] | 0.00469 | 0.00498 | 0.027 | 0.0102 | 0.0302 | 0.0185 | 0.0352 | 0.01 | 2.08 | 1.41 | 3.24 | 2.38 | 1.87 | 2.96 | 2.02 | 1.75 | 589 nM | 62.9 nM | 1080 nM | 995 nM | 209 nM | 2190 nM | 357 nM | 161 nM
7 | FC(F)(F)c1ccc(/C=C/c2nc(COc3ccc(CCCCn4ccnn4)cc3)co2)cc1 [Mubritinib (TAK 165)] | 0.0382 | 0.125 | 0.033 | 0.0401 | 0.765 | 0.151 | 0.586 | 0.21 | 1.04 | 1.78 | 1.39 | 1.14 | 2.96 | 2.12 | 2.86 | 1.78 | 32.9 nM | 116 nM | 58 nM | 42.9 nM | > 10000 nM | 154 nM | > 10000 nM | 147 nM
8 | COc1ccc(-c2ccc3c(N4CCOCC4)nc(N4C[C@@H](C)O[C@@H](C)C4)nc3n2)cc1CO | 0.26 | 0.141 | 0.012 | 0.223 | 0.174 | 0.379 | 0.214 | 0.222 | 2.03 | 2.23 | 2.98 | 2.49 | 2.53 | 3.62 | 2.66 | 2.23 | 772 nM | 592 nM | 1630 nM | 1360 nM | 1080 nM | 4900 nM | 2120 nM | 724 nM
9 | CCn1cc(-c2ccnc3[nH]c(-c4cccc(CN(C)C)c4)cc23)c(-c2ccc(NC(=O)N(C)C)cc2)n1 | 0.0121 | 0.0251 | 0.0615 | 0.0272 | 0.0471 | 0.121 | 0.165 | 0.0985 | 1.97 | 2.08 | 5.13 | 2.2 | 2.3 | 3.74 | 2.8 | 2.54 | 84.3 nM | 387 nM | 6090 nM | 686 nM | 490 nM | 3070 nM | 1440 nM | 1530 nM
